Source: patent US9504255B2, “Physical antimicrobial method” (priority 2012, dated 2016)

Columns and labels:
[1] = tested on: Escherichia coli; experiment: Drug-resistance experiment on pathogens isolated from the Department of Burns (NCCLS 1997); format: cell-based; conditions: clinical isolates
[2] = tested on: aerogenes; experiment: as above; format: cell-based, Enterobacter aerogenes; conditions: clinical isolates
[3] = tested on: Enterobacter cloacae; experiment: as above; format: cell-based; conditions: clinical isolates
[4] = tested on: Pseudomonas aeruginosa; experiment: as above; format: cell-based; conditions: clinical isolates
[5] = tested on: Acinetobacter; experiment: as above; format: cell-based; conditions: clinical isolates
[6] = tested on: patients clinically diagnosed with impetigo; experiment: Experiment of treatment of impetigo; format: in vivo, human; conditions: to the affected area 2 times a day, for 7 days
Description: 1652 patients clinically diagnosed with impetigo by the Department of Dermatology in the hospital were chosen and randomly divided into experimental group (n=1032) and control group (n=620). The experimental group was treated with the antimicrobial composition of the invention to the affected area, and the control group was treated with mupirocin, 2 times a day, for 7 days.

[7] = tested on: MSSA; experiment: Drug-resistance experiment on pathogens isolated from the Department of Burns (NCCLS 1997); format: cell-based, Staphylococcus aureus; conditions: clinical isolates

| Compound | resistance rate of Escherichia coli [1] | resistance rate of Pseudomonas aeruginosa [4] | resistance rate of Acinetobacter [5] | other results |
| --- | --- | --- | --- | --- |
| CC1(C)S[C@@H]2[C@H](NC(=O)[C@H](N)c3ccccc3)C(=O)N2[C@H]1C(=O)O [ampicillin] | 80.1% |  |  |  |
| Cc1nnc(SCC2=C(C(=O)O)N3C(=O)[C@@H](NC(=O)Cn4cnnn4)[C@H]3SC2)s1 [cefazolin] | 40.0% |  |  | resistance rate of aerogenes [2]: 79.3%; resistance rate of Enterobacter cloacae [3]: 89.3% |
| CC(C)(O/N=C(\C(=O)N[C@@H]1C(=O)N2C(C(=O)[O-])=C(C[n+]3ccccc3)CS[C@H]12)c1csc(N)n1)C(=O)O [ceftazidime] |  | 21.7% | 21.2% |  |
| C/C(=C\C(=O)OCCCCCCCCC(=O)O)C[C@@H]1OC[C@H](C[C@@H]2O[C@H]2[C@@H](C)[C@H](C)O)[C@@H](O)[C@H]1O [mupirocin] |  |  |  | effective rate [6]: 85% |
| CCN1CCN(C(=O)N[C@@H](C(=O)N[C@@H]2C(=O)N3[C@@H]2SC(C)(C)[C@@H]3C(=O)O)c2ccccc2)C(=O)C1=O [piperacillin] |  |  | 93.3% |  |
| gentamicin | 40.9% | 35.3% | 18.9% | resistance rate of aerogenes [2]: 8.2%; resistance rate of Enterobacter cloacae [3]: 28.1% |
| penicillin |  |  |  | resistance rate of MSSA [7]: 87.0% |
| piperazine amoxicillin |  | 34.1% |  |  |
